Assay results reported in patent publication US12673925B2, “Compounds and compositions for eye treatments” (Avedro, Inc., priority 2018, dated 2026).

System: cornea of porcine whole globes
Experiment: Porcine eye corneal flattening assay
Settings: de-epithelialized porcine cornea; 0.11% w/v in saline; UVA 4 mm circle, 365 nm, 30 mW/cm^2, pulsed, 16.2 min, 15 J, 90%+ oxygen, 37.0° C.
Experimental: Protocol 1 (For Examples 8, 9, 10, 17, 18, 19, 20, 28, and 29): Porcine whole globes in saline at 4° C. were warmed to room temperature. […] The eye holders were then positioned inside an enclosed chamber that allows for the control of atmosphere, temperature and humidity (typically a water bath at 37.0° C.). IOP is maintained at a constant pressure by the insertion of a blood bank buffered saline line from an IV bag at a standard height inserted into each eye via a syringe needle. 5% Dextran T500 in blood bank buffered saline is dropped onto the surface of the cornea of each eye every 90 sec for 2 hours to allow the eyes to stabilize. […] The test eye is then orientated in a vertical position and the pre-treatment surface keratometry of the cornea measured using a Pentacam® HR device fine cornea 100 scan. […] After a further 1.5 hours during which the 5% dextran drops are resumed the eye is orientated back to the vertical position and the post-treatment surface keratometry of the cornea measured using a Pentacam® HR device fine cornea 100 scan as before. The difference map between the pre and post treatment corneal images is obtained and the overall change in keratometry (Km) of the central 3 mm zone recorded as a change in diopters. […]

Question: With `Cc1cc2nc(-c3nnnn3C)c(=O)n(C[C@H](O)[C@H](O)[C@H](O)CO)c2cc1C` [Compound 40] as the molecule, how does the “Refractive Change (D)” value read?
Answer: −2.5 D
